Assay results from patent publication US20020120098A1, “Enhanced stimulation of erythropoiesis” (priority 1996, published 2002).
Entries after “also recorded” stand apart in the source; their conditions may differ.

Experiments:
Type in all cases: cell-based, human
BFU-E = assay: Colony formation assay, adult peripheral blood LDMNC: BFU-E; conditions: for fold increase in BFU-E, adult blood, 0.2 U/ml Epo: ~20% O2, compared to untreated controls (no addition) at 0.2 U/ml Epo
Protocol: (§1) Blood was collected with informed consent from the antecubital vein of healthy adult human volunteers into vacutainers containing 143 USP U/ml sodium heparin. Low density mononuclear cells (LDMNC) were isolated by centrifugation over a density gradient as described in Example 1. Plastic adherent cells were removed by an overnight incubation in a tissue culture flask and the non-adherent cells were placed directly in a CFA. Conditions for the CFA are similar to those described in Examples 1-4.
(§2) The mean fold increase in adult blood BFU-E, CFU-E and CFU-GM progenitor number produced by 1.0 mg/ml HAo (15.6 μM) or HEMOLINK™ (15.6 μM), 100 μM hemin or 250 μM FeCl3 is shown in FIG. 9 (n=3). Cultures were maintained at ambient oxygen tensions (˜20% O2) for 14 days. The fold increase in colonies is expressed relative to control cells treated only with the respective vehicles. […] The magnitude of this increase was greater for adult than cord blood LDMNC.
(§3) The mean fold increase in adult blood BFU-E, CFU-E and CFU-GM progenitor number at 5% O2 is shown in FIG. 10 with the same additives. Results are expressed relative to control cells treated only with the respective vehicles and cultured at ambient oxygen tensions (˜20% O2). Reduced oxygen tensions (5% O)2 enhanced the growth of BFU-E which was further increased by the addition of HAo, HEMOLINK™, hemin or FeCl3. All agents stimulated a similar increase in BFU-E number (˜9-11-fold) at 5% O2 compared to untreated control cells at ambient oxygen tensions.
(§4) Mean fold increase in adult blood BFU-E, CFU-E and CFU-GM progenitor number in the presence of reduced Epo (0.2 U/ml) (n=3) at 20% O2 is shown in FIG. 11 with and without (no addition) the additives used in FIG. 9. Results are expressed relative to control cells at 2 U/ml Epo treated only with the respective vehicles (solid line at fold expansion=1.0). […] As with cord blood, CFU-GM numbers were unaffected by reductions in Epo. The addition of HAo or HEMOLINK™ to CFAs containing 0.2 U/ml Epo stimulated ˜4.5- and ˜3.5-fold increases in BFU-E and CFU-E, respectively, compared to untreated controls (no addition), restoring the progenitor number to that obtained at 2 U/ml Epo. Hemin stimulated the greatest increase in BFU-E and CFU-E (˜9- and ˜6-fold, respectively) at 0.2 U/ml Epo versus the untreated controls (no addition). FeCl3 stimulated only a ˜2-fold increase in erythroid progenitor number at 0.2 U/ml Epo.
Mean fold increase in adult blood BFU-E, CFU-E and CFU-GM progenitor number at 5% O2 in the presence of reduced Epo (0.2 U/ml) (n=3) is shown in FIG. 12 with and without the additives used in FIG. 9. […]

[1] = system: total erythroid progenitors (BFU-E+CFU-E); assay: Inhibition of succinylacetone (SA) toxicity to erythroid progenitors in CFA; conditions: 0.5 mM SA; 100 μM hemin, 15.6 μM HAo or HEMOLINK, 250 μM FeCl3; ambient O2, 14 days
Protocol: The effect of the various additives on the inhibitory effect of succinylacetone (SA), a heme synthesis inhibitor, on erythroid progenitors was determined. Primary LDMNC were cultured in methyl cellulose as described in Example 1. Cord blood LDMN were plated in the presence of 1.0 mg/ml HAo (15.6 μM; n=12) or HEMOLINK™ (15.6 μM; n=5), 100 μM hemin (n=12), 250 μM FeCl3 (n=11) or no addition (n=12), in absence or presence of 0.5 mM SA. Cultures were maintained in a humidified chamber at 37° C., 5% CO2, and ambient oxygen tensions for 14 days.
Results are expressed as the number of total erythroid progenitors (BFU-E+CFU-E) present on plates treated with the various additives in the presence of SA relative to the number present on untreated plates (no SA or other addition). Significant differences in the presence of the respective additives compared to no addition (SA only; relative progenitor number=0.31) are as indicated: *p<0.001, **p<0.0001. Significant differences in the presence of the respective additives compared to no treatment (no SA; solid line at relative erythroid progenitor number=1.0) are as indicated: +p<0.05, ++p<0.001.

CFU-E [2] = assay: Colony formation assay, adult peripheral blood LDMNC: CFU-E; conditions: for fold increase in CFU-E, adult blood, 0.2 U/ml Epo: ~20% O2, compared to untreated controls (no addition) at 0.2 U/ml Epo; for increase in number of CFU-E progenitors, adult blood, ambient O2 (in words): 2 U/ml Epo
Protocol: as §1, §2, §3, §4
Mean fold increase in adult blood BFU-E, CFU-E and CFU-GM progenitor number at 5% O2 in the presence of reduced Epo (0.2 U/ml) (n=3) is shown in FIG. 12 with and without the additives used in FIG. 9. Results are expressed relative to control cells at 2 U/ml Epo treated only with the respective vehicles and cultured at ambient oxygen tensions (˜20% O2) for 14 days (solid line at fold expansion=1.0). The number of erythroid progenitors stimulated at 5% O2 and 0.2 U/ml Epo was similar to that obtained with 2.0 U/ml Epo maintained at ambient oxygen tensions (no addition).

CFU-E [3] = assay: Colony formation assay (CFA), cord blood LDMNC: CFU-E colonies; conditions: 5% O2, 0.2 U/ml Epo; 100 μM hemin, 1.0 mg/ml HAo or HEMOLINK; relative to controls at 2 U/ml Epo, ambient O2

Molecule | fold increase in BFU-E, adult blood, ambient O2 (BFU-E; 2 U/ml Epo, ambient O2, 1.0 mg/ml HAo or HEMOLINK, 100 μM hemin, 250 μM FeCl3, vs vehicle controls) | reversal of inhibitory effect of SA on erythroid progenitors (in words) [1] | fold increase in BFU-E, adult blood, 0.2 U/ml Epo (BFU-E) | fold increase in CFU-E, adult blood, 0.2 U/ml Epo (CFU-E [2]) | increase in number of CFU-E progenitors, adult blood, ambient O2 (in words) (CFU-E [2]) | fold increase in CFU-E at 0.2 U/ml Epo and 5% O2 (CFU-E [3])
[Cl][Fe]([Cl])[Cl] [FeCl3] | < 3 fold | less effective than lower concentrations of hemoglobin; also recorded: unable to overcome the inhibitory effect of SA | – | – | – | –
C=CC1=C(C)C2=Cc3c(C=C)c(C)c4[n]3[Fe-2]35([Cl])[n]6c(c(C)c(CCC(=O)O)c6=CC6=[N+]3C(=C4)C(C)=C6CCC(=O)O)=CC1=[N+]25 [hemin] | – | able to completely overcome the SA inhibition of erythroid colonies; also recorded: able to overcome the inhibitory effect of SA | ~9 fold | ~6 fold | slight increases | 3.2 fold
HAo: adult human hemoglobin obtained from red blood cells and purified by displacement chromatography; uncross linked product | – | partially able to overcome the inhibitory effect of SA; also recorded: could partially reverse the SA toxicity | ~4.5 fold | ~3.5 fold | slight increases | 2.1 fold
HEMOLINK™: chemically crosslinked hemoglobin prepared by treating human hemoglobin with a polyaldehyde (O-raffinose) | – | unable to fully restore erythroid progenitor numbers | ~4.5 fold | ~3.5 fold | slight increases | 1.7 fold
